The text below walks through data of patent US20110040086A1, “Novel Beta-Lactam Antibiotics, Methods for Their Production, and Their Use” (DRITTE PATENTPORTFOLIO BETEILIGUNGSGESELLSCHAFT MB, priority 2007, published 2011).

A short description of series [1]: logP value by HPLC according to Donovan et al. Particulars: HPLC, methanol/0.1% phosphoric acid pH 2. In a few lines: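 Reversed-phase HPLC at 18-24° C with a methanol/0.1% phosphoric acid pH 2 gradient, 10% to 100% methanol over 9.4 min, 1.5 mL/min. Analyte co-injected with methyl phenyl sulfonate and toluene standards. logP derived from analyte/standard retention-time relationships.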

The subject of a further series is B. subtilis AWD 166. Nature of the series: agar diffusion test (antimicrobial effect). It counts as cell-based, Bacillus subtilis. In a few lines:
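Nutrient agar seeded with B. subtilis AWD 166 to give dense non-confluent colonies; compounds in methanol or distilled water applied to discs at 10, 50, 100 μg. After 20 h at 37 °C, inhibition zone diameter measured in mm.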

For another series, the system named is E. faecalis 945. As to the kind of experiment: agar diffusion test (Test System II, multi-resistant germs). It counts as cell-based, Enterococcus faecalis. The arrangement: key: r = resistant (no detectable zone of inhibition). In a few lines: (§1)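 Discs loaded with 10-100 μg compound on McFarland 0.5 lawns of Müller-Hinton agar II; zone diameters read after 18-20 h at 37 °C.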

In a further series the test system is S. epidermidis 1068. Described as above. The arrangement: key: r = resistant (no detectable zone of inhibition). It counts as cell-based, Staphylococcus epidermidis. In a few lines: as §1
A further series deals with S. epidermidis 1071. The series is described as above. It is filed as cell-based, Staphylococcus epidermidis. Set-up: key: r = resistant (no detectable zone of inhibition). In a few lines:
as §1

The subject of another series is S. epidermidis 847. Described as above. It is filed as cell-based, Staphylococcus epidermidis. The arrangement: key: r = resistant (no detectable zone of inhibition). The essentials:
as §1

A further series deals with S. epidermidis 563. The series is described as above. It is filed as cell-based, Staphylococcus epidermidis. Set-up: key: r = resistant (no detectable zone of inhibition). In a few lines: as §1
In series [2] the test system is Escherichia coli SBUG 1135. Nature of the series: agar diffusion test (Test System 1, antimicrobial effect). The arrangement: key: r = resistant (no detectable zone of inhibition). It counts as cell-based. The essentials:
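E. coli SBUG 1135 grown 17 h at 37° C, 180 rpm, diluted 1:100 and seeded in nutrient agar at ~10^6 cells. Discs loaded with 10, 50 or 100 μg compound (methanol or water); inhibition-zone diameter (mm) read after 20 h at 37° C.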

Compound `O=C(O)C1=C(Cl)CSC2C(NC(=O)C(NC3=C(C(=O)NCCO)C(=O)C=CC3=O)c3ccccc3)C(=O)N12` (stereo not shown) [1i, 3-chlorine-7-{2-[2-(2-hydroxyethylcarbamoyl)-3,6-dioxocyclohexa-1,4-dienylamino]-2-phenyl-acetylamino}-8-oxo-1-thia-5-azabicyclo[4.2.0]oct-3-en-4-carboxylic acid] had a logP value in series [1] of 1.81. For the same compound, the “Diameter of zone of inhibition” value in the series on B. subtilis AWD 166 (Quantity n 0.029) was 30 mm; in the series with B. subtilis AWD 166 (Quantity n 0.14) it was 36 mm; with B. subtilis AWD 166 (Quantity n 0.29), 38 mm; in the series with E. faecalis 945 (Quantity n 0.029), “r”; with E. faecalis 945 (Quantity n 0.14), “r”; in the series on E. faecalis 945 (Quantity n 0.29) it was “r”. The “Diameter of zone of inhibition” value in the series with S. epidermidis 1068 (Quantity n 0.029) was determined as 12 mm; in the series on S. epidermidis 1068 (Quantity n 0.14), 18 mm; in the series on S. epidermidis 1068 (Quantity n 0.29), 22 mm; in the series on S. epidermidis 1071 (Quantity n 0.029) it was 14 mm; with S. epidermidis 1071 (Quantity n 0.14), 22 mm; in the series with S. epidermidis 1071 (Quantity n 0.29), 26 mm. The “Diameter of zone of inhibition” value in the series with S. epidermidis 847 (Quantity n [mol] 0.029) came to 12 mm; with S. epidermidis 847 (Quantity n [mol] 0.14) it was 20 mm; in the series on S. epidermidis 847 (Quantity n [mol] 0.29) it was 24 mm; in the series on S. epidermidis 563 (Quantity n 0.029), 12 mm; in the series on S. epidermidis 563 (Quantity n 0.14), 22 mm; in the series with S. epidermidis 563 (Quantity n 0.29), 24 mm. Besides, the “Diameter of zone of inhibition” value in series [2] (Quantity n 0.029) stood at 18 mm; in series [2] (Quantity n 0.14) it was 24 mm; in series [2] (Quantity n 0.29), 28 mm.
Turning to “7-{2-[2-(2-hydroxyethylcarbamoyl)-3,6-dioxocyclohexa-1,4-dienylamino]-2-phenyl-acetylamino}-desacetoxycephalosporanic acid [1e]”, the “Diameter of zone of inhibition” value in the series on B. subtilis AWD 166 (Quantity n 0.029) is listed as 22 mm; in the series with B. subtilis AWD 166 (Quantity n 0.14) it was 30 mm; in the series with B. subtilis AWD 166 (Quantity n 0.29) it was 32 mm; in the series with E. faecalis 945 (Quantity n 0.029), “r”; in the series with E. faecalis 945 (Quantity n 0.14) it was “r”; with E. faecalis 945 (Quantity n 0.29) it was “r”. For the same compound, the “Diameter of zone of inhibition” value in the series on S. epidermidis 1068 (Quantity n 0.029) is recorded as “r”; in the series on S. epidermidis 1068 (Quantity n 0.14) it was 14 mm; in the series on S. epidermidis 1068 (Quantity n 0.29), 16 mm; in the series on S. epidermidis 1071 (Quantity n 0.029), 10 mm; in the series with S. epidermidis 1071 (Quantity n 0.14) it was 18 mm; with S. epidermidis 1071 (Quantity n 0.29) it was 20 mm. Moreover, the “Diameter of zone of inhibition” value is given as “r” in the series on S. epidermidis 847 (Quantity n [mol] 0.029); 16 mm in the series with S. epidermidis 847 (Quantity n [mol] 0.14); 20 mm in the series on S. epidermidis 847 (Quantity n [mol] 0.29); “r” in the series with S. epidermidis 563 (Quantity n 0.029); 18 mm in the series with S. epidermidis 563 (Quantity n 0.14); 24 mm with S. epidermidis 563 (Quantity n 0.29). In addition, the “Diameter of zone of inhibition” value in series [2] (Quantity n 0.029) was “r^2”; in series [2] (Quantity n 0.14) it was 16 mm; in series [2] (Quantity n 0.29), 18 mm.
Regarding “7-{2-2-(2-hydroxyethylcarbamoyl)-3,6-dioxyocyclohexa-1,4-dienylamino]-2-(4-hydroxyphenyl)-acetylamino}-desacetoxycephalosporanic acid [1a]”, the “Diameter of zone of inhibition” value was 24 mm in the series on B. subtilis AWD 166 (Quantity n 0.019); 30 mm in the series on B. subtilis AWD 166 (Quantity n 0.1); 32 mm in the series with B. subtilis AWD 166 (Quantity n 0.19); “r” with E. faecalis 945 (Quantity n 0.019); “r” in the series on E. faecalis 945 (Quantity n 0.1); “r” with E. faecalis 945 (Quantity n 0.19). Also, the “Diameter of zone of inhibition” value with S. epidermidis 1068 (Quantity n 0.019) was “r”; in the series on S. epidermidis 1068 (Quantity n 0.1) it was 10 mm; in the series with S. epidermidis 1068 (Quantity n 0.19), 16 mm; with S. epidermidis 1071 (Quantity n 0.019) it was “r”; with S. epidermidis 1071 (Quantity n 0.1) it was 18 mm; in the series on S. epidermidis 1071 (Quantity n 0.19) it was 20 mm. In addition, the “Diameter of zone of inhibition” value in the series on S. epidermidis 847 (Quantity n [mol] 0.019) is “r”; in the series on S. epidermidis 847 (Quantity n [mol] 0.1), 16 mm; in the series on S. epidermidis 847 (Quantity n [mol] 0.19), 20 mm; with S. epidermidis 563 (Quantity n 0.019), “r”; in the series on S. epidermidis 563 (Quantity n 0.1), 10 mm; with S. epidermidis 563 (Quantity n 0.19), 16 mm. Besides, the “Diameter of zone of inhibition” value is “r^2” in series [2] (Quantity n 0.019), 14 mm in series [2] (Quantity n 0.1) and 16 mm in series [2] (Quantity n 0.19).
Regarding “7-[2-(2-ethoxycarbonyl-3,6-dioxocyclohexa-1,4-dienylamino)-2-(4-hydroxyphenyl)-acetylamino]-desacetoxycephalosporanic acid [1d]”, the “Diameter of zone of inhibition” value is on record as 22 mm with B. subtilis AWD 166 (Quantity n 0.029); 30 mm in the series on B. subtilis AWD 166 (Quantity n 0.14); 34 mm in the series on B. subtilis AWD 166 (Quantity n 0.29); “r” in the series on E. faecalis 945 (Quantity n 0.029); “r” in the series on E. faecalis 945 (Quantity n 0.14); “r” in the series on E. faecalis 945 (Quantity n 0.29). Also, the “Diameter of zone of inhibition” value with S. epidermidis 1068 (Quantity n 0.029) is on record as “r”; with S. epidermidis 1068 (Quantity n 0.14) it was 12 mm; in the series on S. epidermidis 1068 (Quantity n 0.29), 14 mm; in the series on S. epidermidis 1071 (Quantity n 0.029), “r”; with S. epidermidis 1071 (Quantity n 0.14), 14 mm; in the series on S. epidermidis 1071 (Quantity n 0.29) it was 18 mm. For the same compound, the “Diameter of zone of inhibition” value in the series with S. epidermidis 847 (Quantity n [mol] 0.029) is reported as “r”; with S. epidermidis 847 (Quantity n [mol] 0.14) it was 10 mm; in the series with S. epidermidis 847 (Quantity n [mol] 0.29), 14 mm; in the series with S. epidermidis 563 (Quantity n 0.029), “r”; in the series on S. epidermidis 563 (Quantity n 0.14) it was 12 mm; in the series on S. epidermidis 563 (Quantity n 0.29) it was 18 mm. In addition, the “Diameter of zone of inhibition” value was “r” in series [2] (Quantity n 0.029), 12 mm in series [2] (Quantity n 0.14) and 16 mm in series [2] (Quantity n 0.29).
